Measured values published in US20080254445A1, “Prognosis in Cancer Patients Vaccinated with a Cancer Antigen Peptide-Associated Agent” (priority 2003, published 2008).

Assays:
[1] = tested on: peptide-specific CTL precursors in PBMCs; test: Peptide-specific CTL precursors in pre- and post (6th)-vaccination PBMCs by IFN-γ-release assay; assay type: cell-based, human; settings: post (6th)-vaccination PBMC; positive cases/No. of tested cases (% positive)
[2] = Delayed type hypersensitivity (DTH) skin test; assay type: in vivo, human; settings: skin test site, first to 6th vaccination; positive cases/No. of tested cases (% positive)
peptide-reactive IgG = test: ELISA of peptide-reactive serum IgG in pre- and post-vaccination sera; assay type: in vivo, human; settings: post (3rd and 6th)-vaccination sera vs pre-vaccination; positive cases/No. of tested cases (% positive)

KFHRVIKDF [CypB84]
Increased immune reactions to peptide: CTL activity [1]: 0/3 | Increased immune reactions to peptide: DTH response [2]: 0/4

DFMIQGGDF [CypB91]
Increased immune reactions to peptide: CTL activity [1]: 0/17

ILPRKHHRI [UBE208]
Increased immune reactions to peptide: CTL activity [1]: 0/1 | Increased immune reactions to peptide: DTH response [2]: 0/1

ALVEFEDVL [HNRPL140]
Increased immune reactions to peptide: CTL activity [1]: 0/5 | Increased immune reactions to peptide: IgG antibody (peptide-reactive IgG): 0/5 | Increased immune reactions to peptide: DTH response [2]: 0/5

DVWSFGILL [Ick422]
Increased immune reactions to peptide: IgG antibody (peptide-reactive IgG): 0/10

DYPSLSATDI [ART4 75]
Increased immune reactions to peptide: IgG antibody (peptide-reactive IgG): 0/15

AFLRHAAL [ART4 13]
Increased immune reactions to peptide: CTL activity [1]: 0/1 | Increased immune reactions to peptide: IgG antibody (peptide-reactive IgG): 0/2 | Increased immune reactions to peptide: DTH response [2]: 0/4

KLKHYGPGWV [CypB129]
Increased immune reactions to peptide: CTL activity [1]: 0/6

ILGELREKV [WHSC141]
Increased immune reactions to peptide: DTH response [2]: 0/8

LIADFLSGL [UBE85]
Increased immune reactions to peptide: DTH response [2]: 0/2

DYSARWNEI [SART2 93]
Increased immune reactions to peptide: DTH response [2]: 0/19

SYTRLFLIL [SART2 899]
Increased immune reactions to peptide: CTL activity [1]: 0/7

RIIYDRKFL [EIF51]
Increased immune reactions to peptide: CTL activity [1]: 0/1 | Increased immune reactions to peptide: DTH response [2]: 0/1

ASLDSDPWV [WHSC103]
Increased immune reactions to peptide: CTL activity [1]: 0/6

RLAEYQAYI [SART3 309]
Increased immune reactions to peptide: CTL activity [1]: 0/6 | Increased immune reactions to peptide: DTH response [2]: 0/9

EYCLKFTKL [ART1 170]
Increased immune reactions to peptide: CTL activity [1]: 0/7 | Increased immune reactions to peptide: DTH response [2]: 0/9

LLQAEAPRL [SART3 302]
Increased immune reactions to peptide: CTL activity [1]: 0/4 | Increased immune reactions to peptide: IgG antibody (peptide-reactive IgG): 0/5 | Increased immune reactions to peptide: DTH response [2]: 0/6

KLVERLGAA [Ick246]
Increased immune reactions to peptide: DTH response [2]: 0/7
